According to patent US20070207204A1, “Dosage Form for Time-Varying Patterns of Drug Delivery” (ALZA CORPORATION, priority 2001, published 2007):

Test: Osmotic pressure of saturated solutions of osmotically effective compounds and mixtures (vapor pressure osmometer)
Format: physicochemical
Settings: saturated solution in water at 37° C.; Model 302B Vapor Pressure Osmometer
From the text: The term “osmagent”, as used herein, includes osmotically effective solutes, osmotically effective compounds, and osmotic agents. […] Osmotically effective compounds useful for the present purpose include magnesium sulfate, magnesium chloride, sodium chloride, lithium chloride, potassium sulfate, sodium carbonate, sodium sulfite, lithium sulfate, potassium chloride, calcium bicarbonate, sodium sulfate, calcium sulfate, potassium acid phosphate, calcium lactate, d-mannitol, urea, inositol, magnesium succinate, tartaric acid, carbohydrates such as raffinose, sucrose, glucose, maltodextrins, α-d-lactose monohydrate, and mixtures thereof. The osmotically effective compound in layer 18 can be in any physical form such as particle, crystal, pellet, tablet, strip, ground, pulverized, film, or granule. The osmotic pressure of saturated solutions of various osmotically effective compounds and for mixtures of osmotic compounds at 37° C. in water, is listed in Table 1. The osmotic pressure can be measured by a commercially available osmometer that measures the vapor pressure difference between pure water and the solution to be analyzed. According to standard thermodynamic principles, the vapor pressure difference is converted into osmotic pressure. In Table 1, osmotic pressures of from 20 atm to 500 atm are set forth. However, the invention includes the use of lower osmotic pressures, and higher osmotic pressures than from 20 atm to 500 atm. The osmometer used for the present measurements is Model 302B, Vapor Pressure Osmometer, manufactured by the Hewlett Packard Co., Avondale, Pa.

Structure (SMILES) | OSMOTIC PRESSURE (atm)
O=C(CO)[C@@H](O)[C@H](O)[C@H](O)CO [Fructose] | 355
OC[C@@H](O)[C@@H](O)[C@H](O)[C@H](O)CO [Mannitol] | 38
[Cl-].[K+] [Potassium Chloride] | 245
O=S(=O)([O-])[O-].[K+].[K+] [Potassium Sulfate] | 39
[Cl-].[Na+] [Sodium Chloride] | 356
OC[C@H]1O[C@@](CO)(O[C@H]2O[C@H](CO)[C@@H](O)[C@H](O)[C@H]2O)[C@@H](O)[C@@H]1O [Sucrose] | 150

Further lines, results first:

OSMOTIC PRESSURE (atm) | Structure (SMILES)
31 | O.O.O.O.O.O.O.O=P([O-])([O-])O.[Na+].[Na+] [Sodium Phosphate Dibasic-7H20]
31 | O.O.O.O.O.O.O.O.O.O.O.O.O=P([O-])([O-])O.[Na+].[Na+] [Sodium Phosphate Dibasic-12H20]
29 | O=P([O-])([O-])O.[Na+].[Na+] [Sodium Phosphate Dibasic-Anhydrous]
28 | O.O=P([O-])(O)O.[Na+] [Sodium Phosphate Monobasic-H20]
36 | O.O.O.O.O.O.O.O.O.O.O.O.O=P([O-])([O-])[O-].[Na+].[Na+].[Na+] [Sodium Phosphate Tribasic-12H20]
